This is an account of results in US20090069320A1, “Substituted 4-Amino-Quinazoline Compounds with Metabotropic Glutamate Receptor Regulating Activity and Uses Thereof” (Gruenenthal GmbH, priority 2006, published 2009).

The term inhibition denotes the relative decrease from the control value, in per cent.

T1 sequence (I3LUI7 19-1212): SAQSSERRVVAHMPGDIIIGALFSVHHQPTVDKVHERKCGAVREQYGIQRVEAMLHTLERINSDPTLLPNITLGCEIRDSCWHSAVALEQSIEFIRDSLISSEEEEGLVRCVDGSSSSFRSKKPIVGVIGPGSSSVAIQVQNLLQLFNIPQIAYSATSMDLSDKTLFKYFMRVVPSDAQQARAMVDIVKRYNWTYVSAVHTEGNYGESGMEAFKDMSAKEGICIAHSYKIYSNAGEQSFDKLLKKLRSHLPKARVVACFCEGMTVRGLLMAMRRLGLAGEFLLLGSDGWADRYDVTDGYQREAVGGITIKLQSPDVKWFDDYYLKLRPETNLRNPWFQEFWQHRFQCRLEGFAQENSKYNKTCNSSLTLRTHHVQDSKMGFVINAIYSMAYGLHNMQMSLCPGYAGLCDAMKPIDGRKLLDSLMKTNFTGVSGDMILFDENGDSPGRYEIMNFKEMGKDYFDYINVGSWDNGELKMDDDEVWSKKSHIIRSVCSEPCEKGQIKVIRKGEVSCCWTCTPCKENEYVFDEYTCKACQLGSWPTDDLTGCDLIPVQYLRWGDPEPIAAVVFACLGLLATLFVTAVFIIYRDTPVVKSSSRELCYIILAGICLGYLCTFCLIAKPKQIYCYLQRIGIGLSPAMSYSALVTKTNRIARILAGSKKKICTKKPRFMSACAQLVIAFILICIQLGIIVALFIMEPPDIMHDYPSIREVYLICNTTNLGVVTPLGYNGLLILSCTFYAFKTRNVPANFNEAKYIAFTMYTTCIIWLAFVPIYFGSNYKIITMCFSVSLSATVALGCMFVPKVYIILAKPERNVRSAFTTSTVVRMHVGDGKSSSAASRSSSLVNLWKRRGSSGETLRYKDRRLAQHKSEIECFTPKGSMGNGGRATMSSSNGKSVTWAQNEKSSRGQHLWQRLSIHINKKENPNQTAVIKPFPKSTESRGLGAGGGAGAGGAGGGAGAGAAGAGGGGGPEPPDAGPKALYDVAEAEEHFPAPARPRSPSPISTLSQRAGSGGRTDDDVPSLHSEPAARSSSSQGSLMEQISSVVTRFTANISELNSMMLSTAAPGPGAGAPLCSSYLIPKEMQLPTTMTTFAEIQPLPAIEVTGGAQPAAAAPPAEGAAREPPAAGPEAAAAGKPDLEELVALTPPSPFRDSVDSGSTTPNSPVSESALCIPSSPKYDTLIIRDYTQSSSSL

One test concerns the target T1, mGluR5 receptor (Sus scrofa, UniProt I3LUI7).
T1 construct: 450 μg of protein from brain homogenate with 5 nM ^3[H]-MPEP; from tissue; host or cells: pig brain halves without medulla, cerebellum and pons
The test can be described thus: [3H]-MPEP mGluR5 receptor binding assay (pig brain homogenate). The following applies: 10 μM compound, 5 nM [3H]-MPEP. Summed up: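 Compounds at 10 μM competed with 5 nM [3H]-MPEP for binding to pig brain membranes (450 μg protein) for 60 min at room temperature in pH 8.0 Hepes buffer. Bound radioactivity was collected on glass-fibre filters and read by β-counting, with 10 μM unlabelled MPEP giving non-specific binding.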
Consider `CCCCC(=O)N(C)Cc1cc(-c2ccc3ncnc(NCc4ccccc4)c3c2)ccc1F` [Example 549, N-(5-(4-(benzylamino)quinazolin-6-yl)-2-fluorobenzyl)-N-methyl pentanamide], for which the “% Inhibition of mGluR5 Receptor (pig) [^3H]-MPEP Bond at 10 μM” value stood at 32%.

The test is the same for the next values; noted with them: 10 μM compound, 5 nM [3H]-MPEP, read-out: % Inhibition of mGluR5 Receptor (pig) [^3H]-MPEP Bond at 10 μM.
Regarding `CC(C)S(=O)(=O)N(C)Cc1cc(-c2ccc3ncnc(NCc4ccccc4)c3c2)ccc1F` [Example 484, N-(5-(4-(benzylamino)quinazolin-6-yl)-2-fluorobenzyl)-N-methylpropane-2-sulfonamide], the inhibition at 10 µM came out at 63%.

As to `Cc1cc(C(=O)N(Cc2cccc(-c3ccc4nc(C)nc(NC5CC5)c4c3)c2)C2CC2)n(C)n1` [Example 485, N-cyclopropyl-N-(3-(4-(cyclopropylamino)-2-methylquinazolin-6-yl)benzyl)-1,3-dimethyl-1H-pyrazole-5-carboxamide], the inhibition at 10 µM was 32%.

As to `Cc1nc(NC2CC2)c2cc(-c3cccc(CN(C(=O)c4cccc(F)c4)C4CC4)c3)ccc2n1` [Example 509, N-cyclopropyl-N-(3-(4-(cyclopropylamino)-2-methylquinazolin-6-yl)benzyl)-3-fluorobenzamide], the inhibition at 10 µM was determined as 31%.

For `Cc1nc(NC2CC2)c2cc(-c3cccc(CN(C(=O)c4ccc(F)cc4F)C4CC4)c3)ccc2n1` [Example 517, N-cyclopropyl-N-(3-(4-(cyclopropylamino)-2-methylquinazolin-6-yl)benzyl)-2,4-difluorobenzamide], the inhibition at 10 µM came out at 59%.

`CCCCC(=O)N(Cc1cccc(-c2ccc3nc(C)nc(NC4CC4)c3c2)c1)C1CC1` [Example 519, N-cyclopropyl-N-(3-(4-(cyclopropylamino)-2-methylquinazolin-6-yl)benzyl)pentanamide]: the inhibition at 10 µM turned out to be 76%.

`Cc1nc(NC2CC2)c2cc(-c3ccc(F)c(CN(C(=O)c4ccc(F)cc4F)C4CC4)c3)ccc2n1` [Example 524, N-cyclopropyl-N-(5-(4-(cyclopropylamino)-2-methylquinazolin-6-yl)-2-fluorobenzyl)-2,4-difluorobenzamide]: the inhibition at 10 µM turned out to be 85%.

As for `Cc1nc(NC2CC2)c2cc(-c3ccc(F)c(CN(C(=O)c4ccc(C(F)(F)F)cc4F)C4CC4)c3)ccc2n1` [Example 532, N-cyclopropyl-N-(5-(4-(cyclopropylamino)-2-methylquinazolin-6-yl)-2-fluorobenzyl)-2-fluoro-4-(trifluoromethyl)benzamide], the inhibition at 10 µM came to 61%.

On to `CCCCC(=O)N(Cc1cc(-c2ccc3nc(C)nc(NC4CC4)c3c2)ccc1F)C1CC1` [Example 540, N-cyclopropyl-N-(5-(4-(cyclopropylamino)-2-methylquinazolin-6-yl)-2-fluorobenzyl)pentanamide], for which the inhibition at 10 µM was determined as 91%.

As to `Cc1cc(C(=O)N(Cc2cc(-c3ccc4nc(C)nc(NC5CC5)c4c3)ccc2F)C2CC2)n(C)n1` [Example 542, N-cyclopropyl-N-(5-(4-(cyclopropylamino)-2-methylquinazolin-6-yl)-2-fluorobenzyl)-1,3-dimethyl-1H-pyrazole-5-carboxamide], the inhibition at 10 µM stood at 33%.

With `Cc1nc(NC2CC2)c2cc(-c3cccc(CN(C(=O)Cc4ccccc4)C4CC4)c3)ccc2n1` [Example 544, N-cyclopropyl-N-(3-(4-(cyclopropylamino)-2-methylquinazolin-6-yl)benzyl)-2-phenylacetamide], the inhibition at 10 µM came out at 66%.

`Cc1nc(NC2CC2)c2cc(-c3ccc(F)c(CN(C(=O)c4ccccc4)C4CC4)c3)ccc2n1` [Example 550, N-cyclopropyl-N-(5-(4-(cyclopropylamino)-2-methylquinazolin-6-yl)-2-fluorobenzyl)benzamide]: the inhibition at 10 µM was determined as 40%.

As for `COCC(=O)N(C)Cc1cc(-c2ccc3ncnc(NCc4ccccc4)c3c2)ccc1F` [Example 557, N-(5-(4-(benzylamino)quinazolin-6-yl)-2-fluorobenzyl)-2-methoxy-N-methylacetamide], the inhibition at 10 µM is 42%.

Regarding `COc1ccc(C(=O)N(Cc2cc(-c3ccc4nc(C)nc(NC5CC5)c4c3)ccc2F)C2CC2)cc1OC` [Example 558, N-cyclopropyl-N-(5-(4-(cyclopropylamino)-2-methylquinazolin-6-yl)-2-fluorobenzyl)-3,4-dimethoxybenzamide], the inhibition at 10 µM worked out at 42%.

`Cc1nc(NC2CC2)c2cc(-c3ccc(F)c(CN(C(=O)c4cccc(F)c4)C4CC4)c3)ccc2n1` [Example 566, N-cyclopropyl-N-(5-(4-(cyclopropylamino)-2-methylquinazolin-6-yl)-2-fluorobenzyl)-3-fluorobenzamide]: the inhibition at 10 µM worked out at 61%.

In the case of `Cc1nc(NC2CC2)c2cc(-c3ccc(F)c(CN(C(=O)c4c(F)c(F)c(F)c(F)c4F)C4CC4)c3)ccc2n1` [Example 574, N-cyclopropyl-N-(5-(4-(cyclopropylamino)-2-methylquinazolin-6-yl)-2-fluorobenzyl)-2,3,4,5,6-pentafluorobenzamide], the inhibition at 10 µM amounted to 106%.

For the compound `CNc1ncnc2ccc(-c3ccc(F)c(CN(C)S(=O)(=O)C(C)C)c3)cc12` [Example 578, N-(2-fluoro-5-(4-(methylamino)quinazolin-6-yl)benzyl)-N-methylpropane-2-sulfonamide], the inhibition at 10 µM is 76%.

Take `Cc1nc(NC2CC2)c2cc(-c3ccc(F)c(CN(C(=O)c4cccc(C(F)(F)F)c4)C4CC4)c3)ccc2n1` [Example 582, N-cyclopropyl-N-(5-(4-(cyclopropylamino)-2-methylquinazolin-6-yl)-2-fluorobenzyl)-3-(trifluoromethyl)benzamide]: the inhibition at 10 µM worked out at 80%.

`CNc1ncnc2ccc(-c3ccc(F)c(CN(C)C(=O)c4c(F)c(F)c(F)c(F)c4F)c3)cc12` [Example 585, 2,3,4,5,6-pentafluoro-N-(2-fluoro-5-(4-(methylamino)quinazolin-6-yl)benzyl)-N-methylbenzamide]: the inhibition at 10 µM amounted to 70%.

In the case of `CNc1ncnc2ccc(-c3ccc(F)c(CN(C)S(=O)(=O)Cc4ccccc4)c3)cc12` [Example 586, N-(2-fluoro-5-(4-(methylamino)quinazolin-6-yl)benzyl)-N-methyl-1-phenylmethane sulfonamide], the inhibition at 10 µM amounted to 62%.

On to `CNc1ncnc2ccc(-c3ccc(F)c(CN(C)C(=O)c4ccc(C(F)(F)F)cc4F)c3)cc12` [Example 593, 2-fluoro-N-(2-fluoro-5-(4-(methylamino)quinazolin-6-yl)benzyl)-N-methyl-4-(trifluoromethyl)benzamide], for which the inhibition at 10 µM was 52%.

For the compound `CC(=O)N(C)Cc1cc(-c2ccc3ncnc(NCc4ccccc4)c3c2)ccc1F` [Example 595, N-(5-(4-(benzylamino)quinazolin-6-yl)-2-fluorobenzyl)-N-methylacetamide], the inhibition at 10 µM was determined as 53%.

`Cc1nc(NC2CC2)c2cc(-c3ccc(F)c(CN(C(=O)CCc4ccccc4)C4CC4)c3)ccc2n1` [Example 601, N-cyclopropyl-N-(5-(4-(cyclopropylamino)-2-methylquinazolin-6-yl)-2-fluorobenzyl)-3-phenylpropanamide]: the inhibition at 10 µM came to 78%.

Turning to `Cc1nc(NC2CC2)c2cc(-c3ccc(F)c(CN(C(=O)c4ccccn4)C4CC4)c3)ccc2n1` [Example 604, N-cyclopropyl-N-(5-(4-(cyclopropylamino)-2-methylquinazolin-6-yl)-2-fluorobenzyl)picolinamide], the inhibition at 10 µM amounted to 41%.

Take `Cc1nc(C(=O)N(Cc2cc(-c3ccc4ncnc(NC5CC5)c4c3)ccc2F)C2CC2)cs1` [Example 605, N-cyclopropyl-N-(5-(4-(cyclopropylamino)quinazolin-6-yl)-2-fluorobenzyl)-2-methylthiazole-4-carboxamide]: the inhibition at 10 µM came out at 94%.

On to `Cc1nc(NC2CC2)c2cc(-c3ccc(F)c(CN(C(=O)c4ccncc4)C4CC4)c3)ccc2n1` [Example 608, N-cyclopropyl-N-(5-(4-(cyclopropylamino)-2-methylquinazolin-6-yl)-2-fluorobenzyl)isonicotinamide], for which the inhibition at 10 µM turned out to be 36%.

For `Cc1nc(C(=O)N(Cc2cccc(-c3ccc4ncnc(NCCc5ccccc5)c4c3)c2)C2CC2)cs1` [Example 609, N-cyclopropyl-2-methyl-N-(3-(4-(phenethylamino)quinazolin-6-yl)benzyl)thiazole-4-carboxamide], the inhibition at 10 µM was determined as 30%.

Turning to `O=C(c1ccc(F)cc1F)N(Cc1cccc(-c2cc(F)c3ncnc(NC4CC4)c3c2)c1)C1CC1` [Example 619, N-cyclopropyl-N-(3-(4-(cyclopropylamino)-8-fluoroquinazolin-6-yl)benzyl)-2,4-difluorobenzamide], the inhibition at 10 µM worked out at 98%.

Regarding `Cc1nc(NC2CC2)c2cc(-c3ccc(F)c(CN(C(=O)c4csc(C)n4)C4CC4)c3)ccc2n1` [Example 624, N-cyclopropyl-N-(5-(4-(cyclopropylamino)-2-methylquinazolin-6-yl)-2-fluorobenzyl)-2-methylthiazole-4-carboxamide], the inhibition at 10 µM amounted to 75%.

Consider `Cc1nc(NC2CC2)c2cc(-c3ccc(F)c(CN(C(=O)C4CCCCC4)C4CC4)c3)ccc2n1` [Example 639, N-cyclopropyl-N-(5-(4-(cyclopropylamino)-2-methylquinazolin-6-yl)-2-fluorobenzyl)cyclohexane carboxamide], for which the inhibition at 10 µM is 46%.

On to `Cc1nc(NC2CC2)c2cc(-c3ccc(F)c(CN(C(=O)Cc4ccccc4)C4CC4)c3)ccc2n1` [Example 644, N-cyclopropyl-N-(5-(4-(cyclopropylamino)-2-methylquinazolin-6-yl)-2-fluorobenzyl)-2-phenylacetamide], for which the inhibition at 10 µM was 85%.

Consider `CC(C)(C)C(=O)N(Cc1cc(-c2ccc3ncnc(NC4CC4)c3c2)ccc1F)C1CC1` [Example 645, N-cyclopropyl-N-(5-(4-(cyclopropylamino)quinazolin-6-yl)-2-fluorobenzyl)pivalamide], for which the inhibition at 10 µM is 90%.
